Laboratory results: patent US10292412B2, “High solubility natural sweetener compositions” (KRAFT FOODS GLOBAL BRANDS LLC, priority 2012, dated 2019)

Experiment: Example 2: solubility of rebaudioside A in liquid concentrates with varying water, acid and alcohol
Format: physicochemical
Design: scale not given here
Procedure: Liquid concentrate formulations were prepared including varying levels of rebaudioside A, water, alcohol, and acid. The solubility was measured at various concentrations of each of the components and the results are included in the tables below: […]

Response 1 Solubility (Water/Citric Acid/Ethanol (190 Proof)/RebA 0.00/0/92.44/7.5600 ml): 5
Response 1 Solubility (Water/Citric Acid/Ethanol (190 Proof)/RebA 0.00/21.92/77.48/0.6048 ml): 1
Response 1 Solubility (Water/Citric Acid/Ethanol (190 Proof)/RebA 39.71/32.88/19.85/7.5600 ml): 1
Response 1 Solubility (Water/Citric Acid/Ethanol (190 Proof)/RebA 47.96/0/47.96/4.0824 ml): 1
Response 1 Solubility (Water/Citric Acid/Ethanol (190 Proof)/RebA 59.56/32.88/0.00/7.5600 ml): 2
Response 1 Solubility (Water/Citric Acid/Propylene Glycol/RebA 0.00/0/92.44/7.5600 ml): Insoluble
Response 1 Solubility (Water/Citric Acid/Propylene Glycol/RebA 0.00/0/99.40/0.6048 ml): 1
Response 1 Solubility (Water/Citric Acid/Propylene Glycol/RebA 0.00/21.92/77.48/0.6048 ml): Insoluble
Response 1 Solubility (Water/Citric Acid/Propylene Glycol/RebA 33.13/0/66.26/0.6048 ml): 1
Response 1 Solubility (Water/Citric Acid/Propylene Glycol/RebA 33.13/10.96/55.30/0.6048 ml): 1
Response 1 Solubility (Water/Citric Acid/Propylene Glycol/RebA 39.71/32.88/19.85/7.5600 ml): Insoluble
Response 1 Solubility (Water/Citric Acid/Propylene Glycol/RebA 47.96/0/47.96/4.0824 ml): 2
Response 1 Solubility (Water/Citric Acid/Propylene Glycol/RebA 49.65/24.66/19.87/5.8212 ml): 2
Response 1 Solubility (Water/Citric Acid/Propylene Glycol/RebA 55.30/10.96/33.13/0.6048 ml): 1
Response 1 Solubility (Water/Citric Acid/Propylene Glycol/RebA 59.56/32.88/0.00/7.5600 ml): 2
Response 1 Solubility (Water/Citric Acid/Propylene Glycol/RebA 59.61/16.44/19.87/4.0824 ml): 2
Response 1 Solubility (Water/Citric Acid/Propylene Glycol/RebA 66.26/0/33.13/0.6048 ml): 1
Response 1 Solubility (Water/Citric Acid/Propylene Glycol/RebA 66.52/32.88/0.00/0.6048 ml): 1
Response 1 Solubility (Water/Citric Acid/Propylene Glycol/RebA 69.57/8.22/19.87/2.3436 ml): 3
Response 1 Solubility (Water/Citric Acid/Propylene Glycol/RebA 79.48/16.44/0.00/4.0824 ml): 3
Response 1 Solubility (Water/Citric Acid/Propylene Glycol/RebA 92.44/0/0.00/7.5600 ml): 5
Response 1 Solubility (Water/Citric Acid/Propylene Glycol/RebA 99.40/0/0.00/0.6048 ml): 3
Response 1 Solubility (Water/Malic Acid/Ethanol (200 Proof)/RebA 0.00/0/92.44/7.5600 ml): Insoluble
Response 1 Solubility (Water/Malic Acid/Ethanol (200 Proof)/RebA 0.00/0/99.40/0.6048 ml): Insoluble
Response 1 Solubility (Water/Malic Acid/Ethanol (200 Proof)/RebA 0.00/10.96/88.44/0.6048 ml): 5
Response 1 Solubility (Water/Malic Acid/Ethanol (200 Proof)/RebA 55.30/10.96/33.13/0.6048 ml): 1
Response 1 Solubility (Water/Phosphoric Acid/Ethanol (190 Proof)/RebA 0.00/0.00/92.44/7.56 ml): Insoluble
Response 1 Solubility (Water/Phosphoric Acid/Ethanol (190 Proof)/RebA 0.00/0.00/99.40/0.60 ml): Insoluble
Response 1 Solubility (Water/Phosphoric Acid/Ethanol (190 Proof)/RebA 0.00/30.81/61.63/7.56 ml): Insoluble
Response 1 Solubility (Water/Phosphoric Acid/Ethanol (190 Proof)/RebA 0.00/33.13/66.26/0.60 ml): 1
Response 1 Solubility (Water/Phosphoric Acid/Ethanol (190 Proof)/RebA 0.00/47.96/47.96/4.08 ml): Insoluble
Response 1 Solubility (Water/Phosphoric Acid/Ethanol (190 Proof)/RebA 0.00/66.26/33.13/0.60 ml): 1
Response 1 Solubility (Water/Phosphoric Acid/Ethanol (190 Proof)/RebA 0.00/92.44/0.00/7.56 ml): Insoluble
Response 1 Solubility (Water/Phosphoric Acid/Ethanol (190 Proof)/RebA 0.00/99.40/0.00/0.60 ml): Insoluble
Response 1 Solubility (Water/Phosphoric Acid/Ethanol (190 Proof)/RebA 15.99/15.99/62.21/5.82 ml): 2
Response 1 Solubility (Water/Phosphoric Acid/Ethanol (190 Proof)/RebA 15.99/39.10/39.10/5.82 ml): 2
Response 1 Solubility (Water/Phosphoric Acid/Ethanol (190 Proof)/RebA 15.99/62.21/15.99/5.82 ml): Insoluble
Response 1 Solubility (Water/Phosphoric Acid/Ethanol (190 Proof)/RebA 30.81/61.63/0.00/7.56 ml): Insoluble
Response 1 Solubility (Water/Phosphoric Acid/Ethanol (190 Proof)/RebA 33.13/0.00/66.26/0.60 ml): 1
Response 1 Solubility (Water/Phosphoric Acid/Ethanol (190 Proof)/RebA 33.13/33.13/33.13/0.60 ml): 1
Response 1 Solubility (Water/Phosphoric Acid/Ethanol (190 Proof)/RebA 33.13/66.26/0.00/0.60 ml): Insoluble
Response 1 Solubility (Water/Phosphoric Acid/Ethanol (190 Proof)/RebA 39.10/15.99/39.10/5.82 ml): 2
Response 1 Solubility (Water/Phosphoric Acid/Ethanol (190 Proof)/RebA 39.10/39.10/15.99/5.82 ml): Insoluble
Response 1 Solubility (Water/Phosphoric Acid/Ethanol (190 Proof)/RebA 47.96/0.00/47.96/4.08 ml): 1
Response 1 Solubility (Water/Phosphoric Acid/Ethanol (190 Proof)/RebA 47.96/47.96/0.00/4.08 ml): Insoluble
Response 1 Solubility (Water/Phosphoric Acid/Ethanol (190 Proof)/RebA 61.63/0.00/30.81/7.56 ml): 4
Response 1 Solubility (Water/Phosphoric Acid/Ethanol (190 Proof)/RebA 61.63/30.81/0.00/7.56 ml): Insoluble
Response 1 Solubility (Water/Phosphoric Acid/Ethanol (190 Proof)/RebA 62.21/15.99/15.99/5.82 ml): 5
Response 1 Solubility (Water/Phosphoric Acid/Ethanol (190 Proof)/RebA 66.26/0.00/33.13/0.60 ml): 1
SMILES: C=C1C[C@@]23CC[C@H]4[C@@](C)(CCC[C@@]4(C)C(=O)O[C@@H]4O[C@H](CO)[C@@H](O)[C@H](O)[C@H]4O)[C@@H]2CC[C@]1(O[C@@H]1O[C@H](CO)[C@@H](O)[C@H](O[C@@H]2O[C@H](CO)[C@@H](O)[C@H](O)[C@H]2O)[C@H]1O[C@@H]1O[C@H](CO)[C@@H](O)[C@H](O)[C@H]1O)C3 [Reb A, rebaudioside A]
